# Assay results from US9766249B2, “Compositions and methods for prediction of drug sensitivity, resistance, and disease progression” (BioMarker Strategies, LLC, priority 2010, dated 2017).
# Entries after “also recorded” stand apart in the source; their conditions may differ. Like-named read-outs stand apart in the source and are kept apart here.
# Legend:
# [1] = test system: Breast Cancer Cell lines (BT-474, MDA-MD-231, SKBR3, HCC-1937, BT-20, T47D, MCF-7, BT-549); details: EGF 200 ng/ml with U0126 1 μM
# Procedure: Breast Cancer Cell lines (BT-474, MDA-MD-231, SKBR3, HCC-1937, BT-20, T47D, MCF-7, BT-549) are propagated and removed from the plate by gentle scraping to simulate a FNA biopsy sample. Following removal, the cells were placed on the SnapPath™ live-tumor-cell processing platform (BioMarker Strategies, LLC) to evoke ex vivo biomarkers. SnapPath™ disperses the sample, enriches for tumor cells, aliquots into test wells, and applies ex vivo stimulation by EGF (200 ng/ml) in the presence or absence of the MEK inhibitor, U0126 (1 μM). Cell lysates are then analyzed using the BioPlex platform for the following phosphoproteins: p-Erk 1/2, p-AKT, p-EGFR, p-Stat3 (BioRad). Functional profiles are generated for each cell line based on the levels of phosphoproteins.
# SK-MEL-28 cells = details: MEK inhibition, absence of EGF stimulation
# Excerpt: (§1) Protein levels measured include pAKT, pErk, pGSK3β, pP70S6k, pSTAT3, and pEGFR.
# SK-MEL-28 [2] = details: MEK inhibition of PDGFβ stimulation
# Excerpt: as §1
# SK-MEL-2 = details: MEK inhibition of PDGFβ stimulation
# Excerpt: as §1
# SK-MEL-31 cells = details: MEK inhibition, absence of EGF stimulation
# Excerpt: as §1
# RPMI-7951 [3] = experiment: PDGFβ stimulation and MEK inhibition of PDGFβ stimulation (FIGS. 23 and 24); assay type: cell-based; details: MEK inhibition of PDGFβ stimulation
# SK-MEL-28 [4] = experiment: EGF stimulation in the presence of PLX-4702 or U0126 (FIGS. 33 and 34); assay type: cell-based
# Excerpt: (§2) Protein levels measured include pAKT, pErk, pMEK.
# RPMI-7951 cells = experiment: EGF stimulation and PLX or MEK inhibition (FIG. 35); assay type: cell-based
# Excerpt: Protein levels measured include pAKT, pErk, pMEK and pEGFR.
# RPMI-7951 [5] = experiment: PDGFRβ activation in the absence or presence of U0126 or PLX-4702 (FIG. 36); assay type: cell-based
# Excerpt: as §2
# SK-MEL-21 = details: MEK inhibition of PDGFβ stimulation
# SK-MEL-31 [6] = details: BRAF-wt, RAS-wt; cited from earlier work
# SK-MEL-28 [7] = details: BRAF-mut (V600E); cited from earlier work
# RPMI-7951 [8] = details: BRAF-mut (V600E), COT Amplification; cited from earlier work
# melanoma = details: phase I and II clinical trials; cited from earlier work
# BT474 = experiment: EGF stimulation, phosphoprotein modulation score (BioPlex bead-immunoassay); assay type: cell-based; details: 200 ng/ml EGF 5 minutes
# Procedure: (§3) Breast cancer cell lines (MCF-7, HCC-1937, MDA-MB-231, BT474, and SKBR3) are exposed to either vehicle (control) or stimulated with 200 ng/ml epidermal growth factor (EGF) for 5 minutes then lysed and proteins extracted. Mean Fluorescence Intensity (MFI) levels of six phosphoproteins (pEGFR, pErk, pAKT, pP70S6K, pGSK3β, and pSTAT3) are determined in sextuplet using a multiplexed bead-immunoassay (BioPlex, BioRad) and a modulation score (MS), defined as the log 2 (MFI stimulated/MFI control), calculated for each. Scores are ranked by percentile relative to the median (0.66) and inter-quartile range (IQR) (1.54). Moderate responders are classified as those with MS between the 75th percentile (2.20) and the 75th percentile plus the IQR (3.74). High responders are those MS>3.74. Low responders are those MS falling between the IQR and 75th percentile (1.54-2.20) whereas non responders are classified as MS<1.54.
# HCC-1937 = experiment: as above; assay type: cell-based; details: 200 ng/ml EGF 5 minutes
# Procedure: as §3
# MCF-7 cells = experiment: as above; assay type: cell-based; details: 200 ng/ml EGF 5 minutes
# Procedure: as §3
# SKBR3 = experiment: as above; assay type: cell-based; details: 200 ng/ml EGF 5 minutes
# Procedure: as §3
# [9] = test system: Breast cancer cell lines (MCF-7, HCC-1937, MDA-MB-231, BT474, and SKBR3); experiment: EGF stimulation, phosphoprotein modulation score, cell line panel; assay type: cell-based; details: 200 ng/ml EGF 5 minutes
# Procedure: as §3
# RPMI-7951 [10] = experiment: Melanoma functional signaling profile upon EGF stimulation (FIG. 15); assay type: cell-based
# Procedure: (§4) Protein levels are measured for pAKT, pERK, pGSK3, p70S6K, pSTAT, pEGFR in RPMI-7951, SK-MEL 2, SK-MEL 28, and SK-MEL 31 cells. Fold changes are calculated for protein level before and after EGF stimulation.
# SK-MEL-31 [11] = experiment: as above; assay type: cell-based
# Procedure: as §4
compound,measurement,setting,value
N#CC(=C(/N)Sc1ccccc1N)/C(C#N)=C(\N)Sc1ccccc1N [U0126],pAKT phosphorylation level,[1]; another functional group,unanticipated up-regulation of p-AKT
same,pAKT phosphorylation level,[1]; one functional group,low levels of p-AKT inhibition
same,pEGFR phosphorylation level,[1]; one functional group,low p-EGFR inhibition
same,pEGFR phosphorylation level,[1]; other functional group,unanticipated up-regulation of p-EGFR
same,pEGFR,SK-MEL-28 cells,activated
same,pErk,SK-MEL-28 cells,inhibited
same,reduction of pErk,SK-MEL-28 [2],approximately 50%
same,pErk,SK-MEL-2,not impacted
same,pAkt,SK-MEL-31 cells,upregulated
same,pErk,SK-MEL-31 cells,inhibited
same,reduction of pErk,RPMI-7951 [3],approximately 50%
same,pMEK,SK-MEL-28 [4]; MEK inhibitor and EGF,increased
same,pErk,"RPMI-7951 cells; EGF stimulation, MEK inhibition",decreased
same,pMEK down-regulation,RPMI-7951 [5]; MEK inhibition,less effective
same,reduction of pErk,SK-MEL-21,approximately 50%
CCCS(=O)(=O)Nc1ccc(F)c(C(=O)c2c[nH]c3ncc(Cl)cc23)c1F [PLX-4702],pERk expression,SK-MEL-28 [4]; PLX inhibition plus EGF stimulation,reduced
same,pMEK,RPMI-7951 [5]; presence of PLX-4702,down-regulated
CCCS(=O)(=O)Nc1ccc(F)c(C(=O)c2c[nH]c3ncc(-c4ccc(Cl)cc4)cc23)c1F [PLX-4032],PLX-4032 Phenotype,SK-MEL-31 [6],resistance; also recorded: Resistant
same,PLX-4032 Phenotype,SK-MEL-28 [7],Sensitive
same,PLX-4032 Phenotype,RPMI-7951 [8],resistance; also recorded: Resistant
same,response rate,melanoma,remarkable response rate
epidermal growth factor [EGF],EGFR-phosphorylation MS,BT474,2.57
same,MS for pErk,HCC-1937,2.89
same,STAT-3 phosphorylation MS,MCF-7 cells,2.34
same,MS for pErk,MCF-7 cells; MS = log 2 (MFI stimulated/MFI control),3.92
same,pAKT MS,SKBR3,1.78
same,EGFR-phosphorylation response class,[9]; all cells except BT474,high
same,pGSK3β MS,[9]; all five cell lines,< 1.0
same,pP70S6K MS,[9]; all five cell lines,< 1.0
same,MS of all other markers across the five cell lines,[9]; markers not named individually,< 1.54
same,pErk response class,"[9]; other lines tested (not MCF-7, HCC-1937)",none
same,induction of pEGFR,RPMI-7951 [10],highest induction
same,induction of pEGFR,SK-MEL-31 [11],highest induction
same,pEGFR,RPMI-7951 cells; all EGF modulation,dramatically increased
